Activity calls are given as the source filed them. Cut-off read from the data, not from the text of the source, for most assays here: actives have a measured EC50 and inactives only a lower limit.
Tests used:
[1] = target: Luciferin 4-monooxygenase (Photinus pyralis, UniProt P08659); assay: inhibition of purified Photinus pyralis luciferase – biochemical, luminescence, dose response (AID 1891)
[2] = Luminescence Cell-Based Dose Confirmation HTS to Identify Inhibitors of Platelet Dense Granule Release. [Related pubchem assays: 1663 (Primary HTS), 1678 (Summary of Project)]; type: functional
Genome polyprotein = Genome polyprotein (dengue virus type 2, UniProt P29990); assay: flavivirus cap methylation enzyme inhibition – biochemical, confirmation dose response, primary screen (AID 588689); type: functional
[3] = tested on: Streptococcus sp. 'group A'; assay: Streptococcus pyogenes SK(-)GAS viability under kanamycin – luminescence, BacTiterGlo, confirmation, counter-screen for streptokinase expression inhibitor project, dose response (AID 1900); type: functional, organism-based
Streptokinase A = target: T1, Streptokinase A (Streptococcus pyogenes serotype M1, UniProt P10520); assay: viability-normalized secreted streptokinase activity reduction – plasminogen activation absorbance, OD405, dose response (AID 1914); type: functional, Streptococcus pyogenes M1 GAS;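 note: secreted streptokinase activity via plasminogen activation per viability signal from cell pellet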
T1 sequence (P10520 whole entry): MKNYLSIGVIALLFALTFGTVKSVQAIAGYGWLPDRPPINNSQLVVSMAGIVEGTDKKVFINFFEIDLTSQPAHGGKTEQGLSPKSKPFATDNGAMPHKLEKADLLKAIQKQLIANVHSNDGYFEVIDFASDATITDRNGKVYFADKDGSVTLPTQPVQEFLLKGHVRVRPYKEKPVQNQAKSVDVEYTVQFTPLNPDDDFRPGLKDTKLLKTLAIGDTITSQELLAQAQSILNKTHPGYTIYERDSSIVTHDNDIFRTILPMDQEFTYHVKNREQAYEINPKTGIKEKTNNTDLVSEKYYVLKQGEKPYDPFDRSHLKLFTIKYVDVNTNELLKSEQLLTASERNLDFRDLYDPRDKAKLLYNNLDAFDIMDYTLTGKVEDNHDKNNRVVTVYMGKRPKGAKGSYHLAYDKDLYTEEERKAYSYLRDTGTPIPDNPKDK

Streptococcus = assay: GAS UMAA2166 growth inhibition – luminescence, BacTiterGlo, counter-screen for streptokinase expression inhibitor project, dose response (AID 1915); type: functional, organism-based;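 note: potency for reduction of bacterial viability or growth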
[4] = NIH-3T3 fibroblast cytotoxicity, dose response, cytotoxicity control, cell-based, fluorescence, Alamar Blue, secondary assay (AID 2327); type: functional;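 note: NIH-3T3 mouse fibroblasts cultured with fluconazole at 8 µg/mL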
[5] = fluconazole-exposed Candida albicans growth modulators – fluorescence, retest, confirmation (AID 2467); type: functional, cell-based
H4 = assay: Luminescence Cell-Based Dose Response HTS to Identify Activators of 5'UTR Stem-Loop Driven Prion Protein mRNA Translation in H4 Neuroglioblastoma Cells. [Related pubchem assays: 1829 (Project Summary), 1814 (Primary HTS)]; type: functional; conditions: Homo sapiens
[6] = Luminescence Cell-Based Dose Confirmation HTS to Identify Activators of 5'UTR Stem-Loop Driven Alpha-Synuclein mRNA Translation in H4 Neuroglioblastoma Cells. [Related pubchem assays: 1829 (Project Summary), 1814 (Primary HTS)]; type: functional
[7] = Luminescence Cell-Based Dose Response HTS to Identify Activators of Luciferase Translation or Activity in H4 […] Cells. [Related pubchem assays: 1829 (Project Summary), 1814 (Primary HTS)]; type: functional
[8] = microbe, parasite or virus in culture; type: functional; conditions: Mycobacterium tuberculosis
[9] = target: T2, Replicative DNA helicase DnaB (Mycobacterium tuberculosis, UniProt P9WMR3); assay: DnaB intein splicing inhibitors, dose response, biochemical, cell-free fluorescence (AID 449749); type: functional
T2 sequence (P9WMR3 whole entry): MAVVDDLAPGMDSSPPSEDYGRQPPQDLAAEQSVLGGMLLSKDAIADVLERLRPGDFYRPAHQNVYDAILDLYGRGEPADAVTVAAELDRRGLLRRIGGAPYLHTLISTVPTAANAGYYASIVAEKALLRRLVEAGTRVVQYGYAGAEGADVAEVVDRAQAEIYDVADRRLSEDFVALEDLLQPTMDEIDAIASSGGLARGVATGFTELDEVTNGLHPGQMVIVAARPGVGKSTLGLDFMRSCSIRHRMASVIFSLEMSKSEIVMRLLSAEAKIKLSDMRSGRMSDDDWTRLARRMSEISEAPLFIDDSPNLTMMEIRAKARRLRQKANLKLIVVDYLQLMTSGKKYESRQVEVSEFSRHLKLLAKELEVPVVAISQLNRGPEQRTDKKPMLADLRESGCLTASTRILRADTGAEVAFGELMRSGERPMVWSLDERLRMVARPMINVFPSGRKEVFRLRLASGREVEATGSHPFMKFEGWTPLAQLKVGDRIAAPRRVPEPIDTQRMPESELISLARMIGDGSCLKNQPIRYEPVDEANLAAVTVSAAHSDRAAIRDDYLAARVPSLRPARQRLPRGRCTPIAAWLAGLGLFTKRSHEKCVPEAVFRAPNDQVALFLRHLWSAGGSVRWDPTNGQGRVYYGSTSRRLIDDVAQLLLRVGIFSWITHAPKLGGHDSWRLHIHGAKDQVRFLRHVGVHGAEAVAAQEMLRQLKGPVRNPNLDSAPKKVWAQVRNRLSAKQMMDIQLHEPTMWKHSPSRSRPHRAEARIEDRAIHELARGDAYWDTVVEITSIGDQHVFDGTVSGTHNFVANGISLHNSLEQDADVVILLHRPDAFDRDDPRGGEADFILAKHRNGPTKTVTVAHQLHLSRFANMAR

Protein RecA = target: T3, Protein RecA (Mycobacterium tuberculosis, UniProt P9WHJ3); assay: Fluorescence Cell-Free Homogeneous Dose Retest to Identify Inhibitors of RecA-Intein Splicing Activity. [Related pubchem assays (depositor defined):AID2097, AID2223, AID489010, AID492950]; type: functional
T3 sequence (P9WHJ3 whole entry): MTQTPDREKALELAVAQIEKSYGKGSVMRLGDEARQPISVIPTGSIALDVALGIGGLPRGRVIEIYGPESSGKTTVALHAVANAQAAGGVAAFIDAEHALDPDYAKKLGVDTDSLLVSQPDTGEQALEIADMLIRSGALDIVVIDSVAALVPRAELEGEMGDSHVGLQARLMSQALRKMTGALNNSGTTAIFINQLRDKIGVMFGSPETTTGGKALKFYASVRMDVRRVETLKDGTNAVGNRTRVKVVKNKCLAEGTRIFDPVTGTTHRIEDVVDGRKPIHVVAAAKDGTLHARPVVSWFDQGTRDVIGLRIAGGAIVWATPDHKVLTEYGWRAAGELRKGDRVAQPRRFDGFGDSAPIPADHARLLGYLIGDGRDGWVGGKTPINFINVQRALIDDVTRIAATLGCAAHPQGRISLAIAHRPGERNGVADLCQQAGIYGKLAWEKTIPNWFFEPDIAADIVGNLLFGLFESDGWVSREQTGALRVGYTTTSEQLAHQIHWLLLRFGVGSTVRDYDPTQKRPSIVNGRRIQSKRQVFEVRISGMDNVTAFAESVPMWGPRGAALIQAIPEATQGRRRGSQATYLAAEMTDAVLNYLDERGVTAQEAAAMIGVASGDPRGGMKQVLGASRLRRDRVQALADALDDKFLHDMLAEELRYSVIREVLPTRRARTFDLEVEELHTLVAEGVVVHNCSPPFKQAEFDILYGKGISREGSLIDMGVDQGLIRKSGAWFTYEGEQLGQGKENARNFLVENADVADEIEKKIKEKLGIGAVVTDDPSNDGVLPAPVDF

H9c2 = assay: cells; type: functional, cell-based; conditions: Rattus norvegicus, H9c2, Myocardium;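 note: confirmatory concentration-response retest of ultra-high-throughput screening hits for modulation of myocardial damage; cell death induced by hydrogen peroxide oxidative stress; compound pretreatment for 60 min then peroxide exposure for 2 h; potency is for protecting the cells against peroxide damage rather than for killing them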
[10] = non-specific 3'UTR reporter inhibition in Clone20-Shn3RL – cell-based, Renilla luciferase, cherry-picked, counter-screen for Shn3 inhibitor project, dose response (AID 624133); type: functional
[11] = reduction of Shn3 3'UTR-driven luciferase in osteoblasts – cell-based, Clone20 osteoblasts, firefly luciferase, cherry-picked, dose response (AID 624132); type: functional;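 note: firefly luciferase luminescence from reporter carrying the Shn3 3'UTR in osteoblasts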
[12] = loss of viability in HepG2 cells – cell-based, CellTiter-Glo, cherry-picked, cytotoxicity control for Shn3 inhibitor project, dose response (AID 624134); type: functional
[13] = target: T4, Calpain-2 catalytic subunit (Sus scrofa, UniProt P43367); assay: m-calpain protease blockers, concentration series – biochemical, fluorogenic peptide substrate, dose response (AID 1420); type: functional
T4 sequence (P43367 whole entry): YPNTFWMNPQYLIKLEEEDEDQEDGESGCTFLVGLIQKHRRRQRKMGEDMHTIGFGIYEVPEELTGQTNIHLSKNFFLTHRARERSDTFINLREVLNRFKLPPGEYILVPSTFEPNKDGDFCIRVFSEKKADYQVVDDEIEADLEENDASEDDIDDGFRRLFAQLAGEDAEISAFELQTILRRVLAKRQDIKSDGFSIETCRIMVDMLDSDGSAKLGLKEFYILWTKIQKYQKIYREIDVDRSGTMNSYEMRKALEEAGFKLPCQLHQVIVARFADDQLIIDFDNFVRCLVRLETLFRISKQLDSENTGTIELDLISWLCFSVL

[14] = blockers of HIV-1 envelope-mediated cell-cell fusion – cherry-pick, dose response (AID 652057); type: functional, cell-based

Chain of Genome polyprotein (P29990 2492-3391 limits assumed): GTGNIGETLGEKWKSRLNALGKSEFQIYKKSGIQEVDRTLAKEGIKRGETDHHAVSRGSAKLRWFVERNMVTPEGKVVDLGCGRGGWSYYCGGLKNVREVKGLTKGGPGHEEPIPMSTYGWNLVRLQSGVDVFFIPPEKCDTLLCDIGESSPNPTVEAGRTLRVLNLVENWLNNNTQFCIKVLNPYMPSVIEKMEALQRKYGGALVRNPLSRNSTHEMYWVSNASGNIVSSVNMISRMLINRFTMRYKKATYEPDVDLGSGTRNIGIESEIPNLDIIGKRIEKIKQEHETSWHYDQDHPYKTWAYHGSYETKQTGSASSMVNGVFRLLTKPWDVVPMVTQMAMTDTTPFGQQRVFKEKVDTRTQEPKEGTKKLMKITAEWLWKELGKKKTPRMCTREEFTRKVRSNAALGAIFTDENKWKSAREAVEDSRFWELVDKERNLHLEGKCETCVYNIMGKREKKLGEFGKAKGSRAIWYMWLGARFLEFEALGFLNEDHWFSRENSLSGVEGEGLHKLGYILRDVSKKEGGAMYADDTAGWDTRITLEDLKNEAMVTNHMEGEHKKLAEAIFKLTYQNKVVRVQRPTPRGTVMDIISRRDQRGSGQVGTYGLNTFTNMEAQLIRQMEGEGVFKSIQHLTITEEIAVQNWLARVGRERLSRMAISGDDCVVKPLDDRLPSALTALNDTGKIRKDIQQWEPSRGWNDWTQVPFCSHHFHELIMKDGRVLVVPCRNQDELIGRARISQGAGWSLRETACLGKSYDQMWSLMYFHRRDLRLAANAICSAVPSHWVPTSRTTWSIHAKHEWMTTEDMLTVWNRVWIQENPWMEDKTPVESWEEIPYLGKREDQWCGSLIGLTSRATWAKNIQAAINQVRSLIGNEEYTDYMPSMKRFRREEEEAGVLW
Chain of Luciferin 4-monooxygenase (P08659 whole entry): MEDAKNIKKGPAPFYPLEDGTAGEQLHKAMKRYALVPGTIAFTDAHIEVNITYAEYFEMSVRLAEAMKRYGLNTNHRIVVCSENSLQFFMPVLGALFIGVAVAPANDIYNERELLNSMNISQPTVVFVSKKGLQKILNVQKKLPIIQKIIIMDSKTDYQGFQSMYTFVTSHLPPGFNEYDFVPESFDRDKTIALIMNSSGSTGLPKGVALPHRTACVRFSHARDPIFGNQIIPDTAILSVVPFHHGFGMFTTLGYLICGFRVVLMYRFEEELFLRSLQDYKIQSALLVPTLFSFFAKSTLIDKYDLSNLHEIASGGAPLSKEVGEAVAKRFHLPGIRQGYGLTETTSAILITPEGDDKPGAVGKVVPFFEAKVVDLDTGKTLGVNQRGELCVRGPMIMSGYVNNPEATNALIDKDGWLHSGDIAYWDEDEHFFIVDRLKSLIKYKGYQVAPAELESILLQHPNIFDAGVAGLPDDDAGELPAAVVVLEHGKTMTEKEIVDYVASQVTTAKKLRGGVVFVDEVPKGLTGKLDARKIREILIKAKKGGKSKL

CC(C)(C)OC(=O)Nc1ncnc2c1ncn2C1OC(CO)C2OC(C)(C)OC21 (stereo not given)
EC50 [1]: > 112 µM (not active)
EC50 [2]: > 112 µM (not active)

COC(=O)c1sc(N2C(=O)C(O)=C(C(=O)c3ccc(C)o3)C2c2ccc([N+](=O)[O-])cc2)nc1C (stereo not given)
IC50 (Genome polyprotein): 38.5 µM (active)
EC50 [3]: 4.55 µM (active)
EC50 (Streptokinase A): > 150 µM (not active)
EC50 (Streptococcus): 6.86 µM (active)

CC(=O)c1cnc2cc(-c3cccc(Br)c3)nn2c1C
EC50 [4]: > 150 µM (inconclusive)
EC50 [5]: > 38 µM (not active)

Cn1c(NN)nc2sc3c(c2c1=O)CCC3
EC50 [4]: > 150 µM (inactive)

COc1ccc(C(=O)/C=C/Sc2nc3ccccc3o2)cc1
EC50 (H4): 14.5 µM (active)
EC50 [6]: 17.4 µM (active)
EC50 [7]: 96.7 µM (active)
CC50 [8]: 32.4 µM (active)
AC50 [9]: > 380 µM (inactive)
EC50 (Protein RecA): 54.4 µM (active)

COc1ccc(/C=C2\C(=O)ON=C2c2ccccc2)cc1OC
IC50 (Genome polyprotein): 95.4 µM (active)

NC1=NC2(CCC(c3ccccc3)CC2)n2c(nc3ccccc32)N1 (stereo not given)
CC50 [8]: 29.3 µM (active)

CCN(C(=O)CSc1nnc(C)n1-c1ccccc1)C1CCS(=O)(=O)C1 (stereo not given)
EC50 [1]: > 112 µM (not active)
EC50 [2]: > 112 µM (not active)

CCOC(=O)CNS(=O)(=O)c1cc(-c2nnc(O)c3ccccc23)ccc1C
EC50 [1]: > 112 µM (not active)
IC50 (H9c2): > 79 µM (inactive)
EC50 [2]: 7.49 µM (active)

O=C(COc1ccc([N+](=O)[O-])cc1)NNC(=S)NC(=O)c1ccc(Br)cc1
EC50 [4]: > 150 µM (inactive)
EC50 [5]: 3.09 µM (active)

C=C(C)[C@@H]1C2=CC(C(=O)OC)=C(C[C@H](C(=C)C)[C@H]3O[C@H]3C3=C[C@H]1OC3=O)O2
AC50 [10]: 5.23 µM (active)
AC50 [11]: 8.16 µM (active)
AC50 [12]: 13.3 µM (active)

CCCCNC(=S)N/N=C/c1ccccc1F
IC50 [13]: 5.17 µM (active)

COc1ccc([Si](C)(C)[C@H]2[C@H](CCO)O[C@@]3(C(=O)N(Cc4cccc(N5CCOC5=O)c4)c4ccccc43)[C@@H]2C)cc1
AC50 [14]: 17.3 µM (active)

CCCc1nc2[nH]c(C)c(NS(=O)(=O)c3ccc(C4CCCCC4)cc3)c(=O)n2n1
IC50 (Genome polyprotein): 61.1 µM (active)

— ChEMBL document CHEMBL1201862, “PubChem BioAssay data set” (2004)
